Structures can show the parent of a compound that is named as a salt.

This test deals with T1, IRAK-4 enzyme (Homo sapiens, UniProt Q9NWZ3).
T1 construct: purchased Millipore, USA
T1 sequence (Q9NWZ3 1-460): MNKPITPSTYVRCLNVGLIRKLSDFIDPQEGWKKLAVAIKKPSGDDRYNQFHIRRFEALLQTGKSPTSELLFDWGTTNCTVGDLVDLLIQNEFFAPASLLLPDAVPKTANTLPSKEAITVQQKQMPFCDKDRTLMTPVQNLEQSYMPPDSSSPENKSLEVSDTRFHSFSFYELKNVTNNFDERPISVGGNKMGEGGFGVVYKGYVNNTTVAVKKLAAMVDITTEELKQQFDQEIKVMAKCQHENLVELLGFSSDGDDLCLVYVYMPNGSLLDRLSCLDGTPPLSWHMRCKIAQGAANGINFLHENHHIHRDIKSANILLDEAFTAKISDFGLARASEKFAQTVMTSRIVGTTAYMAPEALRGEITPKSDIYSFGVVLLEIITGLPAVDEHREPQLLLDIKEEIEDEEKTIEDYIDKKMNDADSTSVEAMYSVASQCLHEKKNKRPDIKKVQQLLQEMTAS
In words: IRAK-4 Biochemical Assay (TR-FRET). To be noted: recombinant IRAK-4 kinase, 20 μM ATP; for inhibition at 0.1 µM: 0.1 μM compound; for inhibition at 1 µM: 1 μM compound. How it is done: Compounds were tested for their potential to inhibit IRAK-4 enzyme in a TR-FRET assay using recombinant IRAK-4 kinase from Millipore, USA. The assay buffer was 50 mM Tris-HCl pH 7.5, 20 mM MgCl2, 1 mM EGTA, 2 mM DTT, 3 mM MnCl2 and 0.01% Tween 20.5 ng of IRAK-4 kinase was used for the assay. After pre-incubation of enzyme with test compound for 30 minutes at room temperature, a substrate mixture containing 100 nM Biotin Histone H3 (Millipore, USA) and 20 μM ATP (Sigma, USA) was added and the reaction was incubated for 30 min. Post incubation, the reaction was stopped by the addition of stop mix containing 40 mM EDTA, 1 nM of Europium-Anti-Phospho-Histone H3 (Ser10) antibody (Perkin Elmer, USA) and 20 nM SureLight Allophycocyanin-Streptavidin (Perkin Elmer, USA). The fluorescence emission at 615 nm and 665 nm were measured at an excitation of 340 nm and the percent inhibition was estimated from the ratio of the fluorescence intensities [(F665/F615)×10000].
The compounds of the present invention were screened in the above mentioned assay and the percent inhibition data is summarized in the Table 1.
In general terms: TR-FRET usually uses a lanthanide donor and a delayed reading to cut background.

Consider `Cn1ncc2cc(NC(=O)c3coc(-c4cccnc4N)n3)c(N3CCC(O)CC3)cc21` [Example 1, 2-(2-aminopyridin-3-yl)-N-(6-(4-hydroxypiperidin-1-yl)-1-methyl-1H-indazol-5-yl)oxazole-4-carboxamide hydrochloride], for which the inhibition (in general, the drop in the measured response relative to a control, in per cent) at 0.1 µM is 96% and the inhibition at 1 µM was 97%. Taken in the same sequence, the figures for `Cc1cc(-c2nc(C(=O)Nc3cc4cnn(CCN(C)C)c4cc3N3CCC(O)CC3)co2)ccn1` [Example 2, N-(1-(2-(dimethylamino)ethyl)-6-(4-hydroxypiperidin-1-yl)-1H-indazol-5-yl)-2-(2-methylpyridin-4-yl)oxazole-4-carboxamide] were 95% and 98%. On the same counts, the results for `Cc1cc(-c2nc(C(=O)Nc3cc4cnn(CCN5CCOCC5)c4cc3N3CCC(O)CC3)co2)ccn1` [Example 3, N-(6-(4-hydroxypiperidin-1-yl)-1-(2-morpholinoethyl)-1H-indazol-5-yl)-2-(2-methylpyridin-4-yl)oxazole-4-carboxamide] are 97% and 100%.

On to `COCCCn1ncc2cc(NC(=O)c3coc(-c4ccnc(C)c4)n3)c(N3CCC(O)CC3)cc21` [Example 4, N-(6-(4-hydroxypiperidin-1-yl)-1-(3-methoxypropyl)-1H-indazol-5-yl)-2-(2-methylpyridin-4-yl)oxazole-4-carboxamide hydrochloride], for which the inhibition at 0.1 µM came out at 95% and the inhibition at 1 µM stood at 99%. Take `Cc1cc(-c2nc(C(=O)Nc3cc4cnn(CCCN5CCOCC5)c4cc3N3CCC(O)CC3)co2)ccn1` [Example 5, N-(6-(4-hydroxypiperidin-1-yl)-1-(3-morpholinopropyl)-1H-indazol-5-yl)-2-(2-methylpyridin-4-yl)oxazole-4-carboxamide]: the inhibition at 0.1 µM was 94% and the inhibition at 1 µM was 99%. Taken in the same sequence, the figures for `Cc1cc(-c2nc(C(=O)Nc3cc4cnn(CCN5CCN(C)CC5)c4cc3N3CCC(O)CC3)co2)ccn1` [Example 6, N-(6-(4-hydroxypiperidin-1-yl)-1-(2-(4-methylpiperazin-1-yl)ethyl)-1H-indazol-5-yl)-2-(2-methylpyridin-4-yl)oxazole-4-carboxamide] were 79% and 96%. Taken in the same sequence, the figures for `COCCn1ncc2cc(NC(=O)c3coc(-c4ccnc(N)c4)n3)c(N3CCC(O)CC3)cc21` [Example 7, 2-(2-aminopyridin-4-yl)-N-(6-(4-hydroxypiperidin-1-yl)-1-(2-methoxyethyl)-1H-indazol-5-yl)oxazole-4-carboxamide hydrochloride] were 96% and 98%.

On to `Cc1nn(C)c2cc(N3CCC(CO)CC3)c(NC(=O)c3cnn4cccnc34)cc12` [Example 8, N-(6-(4-(hydroxymethyl)piperidin-1-yl)-1,3-dimethyl-1H-indazol-5-yl)pyrazolo[1,5-a]pyrimidine-3-carboxamide hydrochloride], for which the inhibition at 0.1 µM was 43% and the inhibition at 1 µM turned out to be 91%. For `COCCn1nc(C)c2cc(NC(=O)c3coc(-c4ccnc(N)c4)n3)c(N3CCC(O)CC3)cc21` [Example 9, 2-(2-aminopyridin-4-yl)-N-(6-(4-hydroxypiperidin-1-yl)-1-(2-methoxyethyl)-3-methyl-1H-indazol-5-yl)oxazole-4-carboxamide], the inhibition at 0.1 µM turned out to be 97% and the inhibition at 1 µM was determined as 99%. Regarding `COCCn1nc(C)c2cc(NC(=O)c3coc(-c4ccnc(N)c4)n3)c(N3CCC(CO)CC3)cc21` [Example 10, 2-(2-aminopyridin-4-yl)-N-(6-(4-(hydroxymethyl)piperidin-1-yl)-1-(2-methoxyethyl)-3-methyl-1H-indazol-5-yl)oxazole-4-carboxamide hydrochloride], the inhibition at 0.1 µM amounted to 99% and the inhibition at 1 µM was found to be 99%. For `Cc1nn(C)c2cc(N3CCC(CO)CC3)c(NC(=O)c3coc(-c4cc(F)c(=O)n(C)c4)n3)cc12` [Example 11, 2-(5-fluoro-1-methyl-6-oxo-1,6-dihydropyridin-3-yl)-N-(6-(4-(hydroxymethyl)piperidin-1-yl)-1,3-dimethyl-1H-indazol-5-yl)oxazole-4-carboxamide hydrochloride], the inhibition at 0.1 µM came to 26% and the inhibition at 1 µM stood at 59%. On the same counts, the results for `C=CCOCC1CCN(c2cc3c(cc2NC(=O)c2coc(-c4ccnc(N)c4)n2)c(C)nn3C)CC1` [Example 12, N-(6-(4-((allyloxy)methyl)piperidin-1-yl)-1,3-dimethyl-1H-indazol-5-yl)-2-(2-aminopyridin-4-yl)oxazole-4-carboxamide] are 95% and 96%.

For `Cc1cc(-c2nc(C(=O)Nc3cc4cn(C)nc4nc3N3CCCCC3)co2)ccn1` [Example 13, N-(2-methyl-6-(piperidin-1-yl)-2H-pyrazolo[3,4-b]pyridin-5-yl)-2-(2-methylpyridin-4-yl)oxazole-4-carboxamide hydrochloride], the inhibition at 0.1 µM was found to be 98% and the inhibition at 1 µM turned out to be 99%. For `Cn1cc2cc(NC(=O)c3cccc(N4CC[C@H](O)C4)n3)c(N3CCCCC3)nc2n1` [Example 14, (S)-6-(3-hydroxypyrrolidin-1-yl)-N-(2-methyl-6-(piperidin-1-yl)-2H-pyrazolo[3,4-b]pyridin-5-yl)picolinamide], the inhibition at 0.1 µM came out at 57% and the inhibition at 1 µM is 94%. With `Cn1cc2cc(NC(=O)c3cccc(N4CC[C@H](N)C4)n3)c(N3CCCCC3)nc2n1` [Example 15, (S)-6-(3-aminopyrrolidin-1-yl)-N-(2-methyl-6-(piperidin-1-yl)-2H-pyrazolo[3,4-b]pyridin-5-yl)picolinamide], the inhibition at 0.1 µM is 34% and the inhibition at 1 µM turned out to be 78%. On to `Cc1cc(-c2nc(C(=O)Nc3cc4cnn(C)c4nc3N3CCCCC3)co2)ccn1` [Example 16, N-(1-methyl-6-(piperidin-1-yl)-1H-pyrazolo[3,4-b]pyridin-5-yl)-2-(2-methylpyridin-4-yl)oxazole-4-carboxamide], for which the inhibition at 0.1 µM worked out at 99% and the inhibition at 1 µM was 99%.

As for `Cn1cc2cc(NC(=O)c3coc(N4CC[C@H](N)C4)n3)c(N3CCCCC3)nc2n1` [Example 17, (S)-2-(3-aminopyrrolidin-1-yl)-N-(2-methyl-6-(piperidin-1-yl)-2H-pyrazolo[3,4-b]pyridin-5-yl)oxazole-4-carboxamide], the inhibition at 1 µM is 90%.

Regarding `Cn1cc2cc(NC(=O)c3coc(N4CC[C@H](O)C4)n3)c(N3CCCCC3)nc2n1` [Example 18, (S)-2-(3-hydroxypyrrolidin-1-yl)-N-(2-methyl-6-(piperidin-1-yl)-2H-pyrazolo[3,4-b]pyridin-5-yl)oxazole-4-carboxamide], the inhibition at 1 µM was found to be 93%. The same measure, in the same setting: next, `C[C@H](O)Cn1cc(-c2cccc(C(=O)Nc3cc4cn(C)nc4nc3N3CCCCC3)n2)cn1` [Example 19, (S)-6-(1-(2-hydroxypropyl)-1H-pyrazol-4-yl)-N-(2-methyl-6-(piperidin-1-yl)-2H-pyrazolo[3,4-b]pyridin-5-yl)picolinamide]: 96%; `Cc1cnccc1-c1nc(C(=O)Nc2cc3cn(C)nc3nc2N2CC[C@H](O)C2)co1` [Example 20, (S)—N-(6-(3-hydroxypyrrolidin-1-yl)-2-methyl-2H-pyrazolo[3,4-b]pyridin-5-yl)-2-(3-methylpyridin-4-yl)oxazole-4-carboxamide]: 72%; `Cc1cc(-c2nc(C(=O)Nc3cc4cn(C)nc4nc3N3CC[C@H](O)C3)co2)ccn1` [Example 21, (S)—N-(6-(3-hydroxypyrrolidin-1-yl)-2-methyl-2H-pyrazolo[3,4-b]pyridin-5-yl)-2-(2-methylpyridin-4-yl)oxazole-4-carboxamide]: 89%. On the same count and under the same terms, next, `Cn1cc2cc(NC(=O)c3coc(N4CC[C@H](O)C4)n3)c(C3CC3)nc2n1` [Example 22, (S)—N-(6-cyclopropyl-2-methyl-2H-pyrazolo[3,4-b]pyridin-5-yl)-2-(3-hydroxypyrrolidin-1-yl)oxazole-4-carboxamide]: 65%; `Cc1cc(-c2nc(C(=O)Nc3cc4cnn(C)c4nc3N3CC[C@H](O)C3)co2)ccn1` [Example 23, (S)—N-(6-(3-hydroxypyrrolidin-1-yl)-1-methyl-1H-pyrazolo[3,4-b]pyridin-5-yl)-2-(2-methylpyridin-4-yl)oxazole-4-carboxamide]: 33%. As for `Cn1cc2cc(NC(=O)c3coc(-c4ccnc(N)c4)n3)c(N3CCCCC3)nc2n1` [Example 24], the inhibition at 0.1 µM was 99% and the inhibition at 1 µM turned out to be 99%.

(Values after patent US20180201609A1 (AURIGENE DISCOVERY TECHNOLOGIES LIMITED, priority 2015, published 2018).)
